Patent US8329717B2, “Pyrimidine derivatives and their use for controlling undesired plant growth” (Bayer Cropscience AG, priority 2008, dated 2012)

Columns and labels:
[1] = logp (HCOOH), chemicophysical data; conditions: HCOOH
Veronica persica = test: Pre-emergence herbicidal effect; format: in vivo; conditions: Dosage 320 g/ha, visual scoring after 3 weeks vs untreated controls, 100% = plants have died
From the text: (§1) 1. Pre-Emergence Herbicidal Effect and Crop Plant Compatibility Seeds of monocotyledonous or dicotyledonous weed plants or crop plants are planted in wood-fiber pots in sandy loam and covered with earth. The compounds according to the invention, formulated in the form of wettable powders (WP) or as emulsion concentrates (EC), are then applied as aqueous suspension or emulsion at a water application rate of 600 to 800 l/ha (converted) with the addition of 0.2% of wetting agent to the surface of the covering earth. The dosage of the compounds according to the invention is given in grams per hectare. Following the treatment, the pots are placed in a greenhouse and kept under good growth conditions for the test plants. The visual scoring of the damage on the test plants is carried out after an experiment time of 3 weeks in comparison with untreated controls (herbicidal effect in percent (%): 100% effect=plants have died, 0% effect=as control plants). The following abbreviations are used in the tables below: [table]

Viola tricolor = test: Pre-emergence herbicidal effect; format: in vivo; conditions: Dosage 320 g/ha, visual scoring after 3 weeks vs untreated controls, 100% = plants have died
From the text: as §1

Matricaria inodora = test: Pre-emergence herbicidal effect; format: in vivo; conditions: Dosage 320 g/ha, visual scoring after 3 weeks vs untreated controls, 100% = plants have died
From the text: as §1

Echinochloa crus-galli = test: Pre-emergence herbicidal effect; format: in vivo; conditions: Dosage 320 g/ha, visual scoring after 3 weeks vs untreated controls, 100% = plants have died
From the text: as §1

Amaranthus retroflexus = test: Pre-emergence herbicidal effect; format: in vivo; conditions: Dosage 320 g/ha, visual scoring after 3 weeks vs untreated controls, 100% = plants have died
From the text: as §1

Stellaria media = test: Pre-emergence herbicidal effect; format: in vivo; conditions: Dosage 320 g/ha, visual scoring after 3 weeks vs untreated controls, 100% = plants have died
From the text: as §1

Compound	logp (HCOOH) [1]	further results
Cc1ccccc1-c1nc(N[C@@H]2CCCc3ccccc32)nc(N)c1C#N [Example 1.78]	solid; logp (HCOOH): 3.41; 1H-NMR (CDCl3, 400 MHZ, δ in ppm): 1.85-2.05 (br, 4H,	–
Cc1ccc2c(c1)[C@H](Nc1nc(N)cc(-c3ccccc3)n1)[C@@H](C)C2 [Example 1.83]	wax-like; logp (HCOOH): 1.71; 1H-NMR (CDCl3, 400 MHZ, δ in ppm): 1.25 (m, 3H, CH3);	–
CC1(c2nc(N[C@@H]3CCCc4ccccc43)nc(N)c2C#N)CC1 [Example 1.84]	wax-like; logp (HCOOH): 2.63; 1H-NMR (CDCl3, 400 MHZ, δ in ppm): 0.75 (m, 2H, CH2);	–
Cc1ccc(C2(c3nc(N[C@@H]4CCCc5ccccc54)nc(N)c3C#N)CC2)cc1 [Example 1.85]	wax-like; logp (HCOOH): 4.02; 1H-NMR (CDCl3, 400 MHZ, δ in ppm): 1.70-2.10 (br,	–
N#Cc1c(N)nc(N[C@@H]2CCCc3ccccc32)nc1C1(c2ccc(Cl)cc2Cl)CC1 [Example 1.86]	wax-like; logp (HCOOH): 5.15; 1H-NMR (CDCl3, 400 MHZ, δ in ppm): 1.25 (br, 2H,	–
Cc1ccc2c(c1)[C@H](Nc1nc(N)cc(N(C)C)n1)[C@@H](C)C2 [Example 1.91]	wax-like; logp (HCOOH): 1.66; 1H-NMR (CDCl3, 400 MHZ, δ in ppm): 1.25 (d, 3H, CH3);	–
Cc1ccc2c(c1)[C@H](Nc1nc(N)c(C#N)c(C3(C)CC3)n1)[C@@H](C)C2 [Example 1.93]	wax-like; logp (HCOOH): 3.31; 1H-NMR (CDCl3, 400 MHZ, δ in ppm): 0.75 (m, 2H, CH2);	–
Cc1ccc2c(c1)[C@H](Nc1ncc(C(F)(F)F)c(N)n1)[C@@H](C)C2 [Example 1.107]	wax-like, logp (HCOOH): 2.11; 1H-NMR (CDCl3, 400 MHZ, δ in ppm): 1.25 (d, 3H, CH3);	–
C#Cc1cnc(N[C@@H]2CCCc3ccccc32)nc1N [Example 1.116]	wax-like; logp (HCOOH): 1.09; 1H-NMR (CDCl3, 400 MHZ, δ in ppm): 1.80 (m, 3H, 3H	–
COC(=O)c1cc(N)nc(N[C@H]2c3cc(C)ccc3C[C@@H]2C)n1 [Example 1.118]	wax-like; logp (HCOOH): 2.96; 1H-NMR (CDCl3, 400 MHZ, δ in ppm): 1.30 (d, 3H, CH3);	–
Cc1nc(N[C@@H]2CCc3ccccc32)nc(N)c1[N+](=O)[O-] [Example 1.123]	–	Pre-emergence herbicidal effect VERPE (Veronica persica): 100%; Pre-emergence herbicidal effect VIOTR (Viola tricolor): 100%; Pre-emergence herbicidal effect MATIN (Matricaria inodora): 100%; Pre-emergence herbicidal effect ECHCG (Echinochloa crus-galli): 80%; Pre-emergence herbicidal effect AMARE (Amaranthus retroflexus): 100%; Pre-emergence herbicidal effect STEME (Stellaria media): 100%
CC(=O)c1cnc(N[C@H]2c3cc(C)ccc3C[C@@H]2C)nc1N [Example 1.184]	wax-like; logp (HCOOH): 1.58; 1H-NMR (CDCl3, 400 MHZ, δ in ppm): 1.30 (d, 3H, CH3);	–
Cc1ccc2c(c1)[C@H](Nc1nc(N)cc(C(F)(F)F)n1)[C@@H](C)C2 [Example 1.214]	wax-like; logp (HCOOH): 1.59; 1H-NMR (CDCl3, 400 MHZ, δ in ppm): 1.30 (d, 3H, CH3);	–
COc1cccc(C#Cc2cnc(N[C@H]3c4cc(C)ccc4C[C@@H]3C)nc2N)c1 [Example 1.221]	wax-like; logp (HCOOH): 1.98; 1H-NMR (CDCl3, 400 MHZ, δ in ppm): 1.25 (d, 3H, CH3);	–
Cc1ccc2c(c1)[C@H](Nc1ncc(C#CCO)c(N)n1)[C@@H](C)C2 [Example 1.222]	wax-like; logp (HCOOH): 1.04; 1H-NMR (CDCl3, 400 MHZ, δ in ppm): 1.25 (d, 3H, CH3);	–
Nc1nc(N[C@@H]2CCc3ccccc32)ncc1C(F)(F)F [Example 1.237]	wax-like; logp (HCOOH): 1.50; 1H-NMR (CDCl3, 400 MHZ, δ in ppm): 1.80 (m, 1H, 1H	–
Cc1ccc2c(c1)[C@H](Nc1ncc(C#Cc3cccc(C(F)(F)F)c3)c(N)n1)[C@@H](C)C2 [Example 1.247]	wax-like; logp (HCOOH): 2.60; 1H-NMR (CDCl3, 400 MHZ, δ in ppm): 1.25 (d, 3H, CH3);	–
Cc1ccc2c(c1)[C@H](Nc1ncc(C#Cc3ccc(F)c(Cl)c3)c(N)n1)[C@@H](C)C2 [Example 1.248]	wax-like; logp (HCOOH): 2.71; 1H-NMR (CDCl3, 400 MHZ, δ in ppm): 1.25 (d, 3H, CH3);	–
Cc1ccc2c(c1)[C@H](Nc1ncc(C#CCC(C)C)c(N)n1)[C@@H](C)C2 [Example 1.249]	wax-like; logp (HCOOH): 1.73; 1H-NMR (CDCl3, 400 MHZ, δ in ppm): 1.00 (d, 6H,	–
CCC(O)C#Cc1cnc(N[C@H]2c3cc(C)ccc3C[C@@H]2C)nc1N (stereo partly drawn) [Example 1.251]	wax-like; logp (HCOOH): 1.48; 1H-NMR (CDCl3, 400 MHZ, δ in ppm): 1.00 (t, 3H, CH3);	–
CC(=O)OCC#Cc1cnc(N[C@H]2c3cc(C)ccc3C[C@@H]2C)nc1N [Example 1.252]	wax-like; logp (HCOOH): 1.59; 1H-NMR (CDCl3, 400 MHZ, δ in ppm): 1.25 (d, 3H, CH3);	–
Cc1nc(N[C@@H]2CCCc3ccccc32)nc(N)c1C(=O)OC1CCCCC1 [Example 1.255]	wax-like; logp (HCOOH): 2.03; 1H-NMR (CDCl3, 400 MHZ, δ in ppm): 2.10-2.65 (m,	–
